Experimental data reported in patent US20230111180A1, “HYDROGEN CONTAINING COMPOSITION AND METHODS OF USING THE SAME” (MiZ Company Limited, priority 2017, published 2023).
Where two headings read alike, the source gives them in different places.

Key:
[1] = system: PTSD caused by abuse in early childhood; settings: for Total score (PCL-5): 7% hydrogen gas inhaled, before inhalation score 66
Protocol: Adult women who had lived for 10 years or longer after the onset of PTSD caused by abuse in early childhood were subjected to inhalation of hydrogen gas with a concentration of 7% by using a hydrogen generator (MHG-2000α, produced by MiZ Company Limited) for at least 1 hour (up to 4 hours) per day over 7 weeks. Each of the subjects had been regularly using an analgesic prescribed by a physician to treat pain, and continued the regular use also during the period of inhalation.
Symptoms of PTSD were quantified through interviews by a physician with the PTSD Checklist for DSM-5 (PCL-5; published by the National Center for PTSD).

[2] = system: PTSD due to an intense psychological shock received in military operations; settings: for Total score: 7% hydrogen gas inhaled, before inhalation score 49
Protocol: Adult women who had experienced the onset of PTSD due to an intense psychological shock received in military operations were subjected to inhalation of hydrogen gas with a concentration of 7% by using a hydrogen generator (MHG-2000α, produced by MiZ Company Limited) for at least 2 hours (up to 4 hours) per day over 3 weeks. Each of the subjects had been regularly using an analgesic prescribed by a physician to treat pain, and continued the regular use also during the period of inhalation.
(§1) Symptoms of PTSD were quantified through interviews by a physician.

[3] = system: PTSD due to physical abuse in early childhood and later stages; settings: 7% hydrogen gas inhaled, before inhalation score 61
Protocol: Adult women who had experienced the onset of PTSD due to an intense psychological shock received through physical abuse in early childhood and later stages were subjected to inhalation of hydrogen gas with a concentration of 7% by using a hydrogen generator (MHG-2000α, produced by MiZ Company Limited) for 1 to 3 hours per day over 3 weeks. Each of the subjects had been regularly using an analgesic prescribed by a physician to treat pain, and continued the regular use also during the period of inhalation.
as §1

[4] = system: ROS formation in the brains; settings: 6 days after blast exposure; 4% hydrogen gas 6 hours per day
Protocol: (§2) All animal experiments relating to the present invention were conducted according to the institutional ethical guidelines for animal experiments of the National Defense Medical College and these animal experiments were approved by the Committee for Animal Research at the National Defense Medical College. Inbred C57BL/6 mice were used in this experiment. Age-matched male littermate mice were used in all experiments. The mice were housed in a breeding room with a 12-h light/dark cycle and a room temperature maintained at 24±1° C. The mice had ad libitum access to water and food.
(§3) The mice at 10 weeks of age were anesthetized by intraperitoneal administration of mixed anesthetic agents containing medetomidine hydrochloride (0.3 mg/kg, Domitol, Meiji Seika Pharma Co., Ltd.), midazolam (4.0 mg/kg, Dormice, Astellas Pharma Inc.), and butorphanol (5.0 mg/kg, Vetorphale, Meiji Seika Pharma Co., Ltd.). […] Following blast exposure, mice were allowed to recover from anesthesia and were subsequently returned to their home cage.
(§4) Mice were placed in a humid chamber for hydrogen gas inhalation for 6 hours per day. Hydrogen gas diluted by air (4%) was supplied to the chamber from a hydrogen gas supply apparatus (MiZ Company Limited) at a feeding rate of 2 L/min. The mice had ad libitum access to water and food in the chamber.

[5] = system: mice exposed to blast (bmTBI)
Protocol: as §2, §3, §4
Behavioral analysis was performed 7 days after the blast exposure. All mice used in the behavioral analysis were age-matched male littermates. The behavior of each mouse was monitored and analyzed using a computer-operated video tracking system (SMART, Panlab, Barcelona, Spain), unless otherwise stated. In tests using an apparatus with arms, arm entry was counted when all four legs of a mouse entered each arm. The apparatus was washed after each test. Behavioral studies were performed for mice at 11 to 12 weeks of age.

[6] = system: mice exposed to blast (bmTBI); remark: listed apart in the source
Protocol: All animal experiments relating to the present invention were conducted according to the institutional ethical guidelines for animal experiments of the National Defense Medical College and these animal experiments were approved by the Committee for Animal Research at the National Defense Medical College. Inbred C57BL/6 mice were used in this experiment. Age-matched male littermate mice were used in all experiments. The mice were housed in a breeding room with a 12-h light/dark cycle and a room temperature maintained at 24±1° C. The mice had ad libitum access to water and food. […]
Behavioral analysis was performed 7 days after the blast exposure. […] The behavior of each mouse was monitored and analyzed using a computer-operated video tracking system (SMART, Panlab, Barcelona, Spain), unless otherwise stated. In tests using an apparatus with arms, arm entry was counted when all four legs of a mouse entered each arm. […]
A sociability test was performed by using a conventional method. Interaction time with another living mouse versus a stuffed mouse was measured in an open field using two cylinder cages allowing olfactory and minimal tactile feelings. […]

[7] = at clinical concentrations, previous studies; cited from earlier work
[8] = 7 days after blast, 4% hydrogen gas 6 hours per day for 7 days, one-way ANOVA p>0.05

Compound: [HH] [hydrogen gas]
- Symptoms of PTSD after the initiation of inhalation ([1]; 7% hydrogen gas, 1 to 4 hours per day over 7 weeks): tended to ameliorate
- Total score (PCL-5) ([1]; Week 1, average 2.2 H/day): 55
- Total score (PCL-5) ([1]; Week 2, average 3.8 H/day): 41
- Total score (PCL-5) ([1]; Week 4, average 2.8 H/day): 41
- Total score (PCL-5) ([1]; Week 7, average 1.1 H/day): 27
- Symptoms of PTSD after the initiation of inhalation ([2]; 7% hydrogen gas, 2 to 4 hours per day over 3 weeks): tended to ameliorate
- Total score ([2]; Week 2, average 4 H/day): 16
- Total score ([2]; Week 3, average 2 H/day): 12
- Total score ([3]; Week 1, average 3 H/day): 62
- Total score ([3]; Week 2, average 2 H/day): 60
- Total score ([3]; Week 4, average 1 H/day): 49
- Total score ([3]; Week 7, average 2 H/day): 53
- Total score ([3]; Week 10, average 2.15 H/day): 50
- ROS in the brains (ethidium fluorescence) versus blast exposure alone [4]: significantly reduced
- Activity, total distance traveled in 10 minutes, versus sham [5, 8]: did not show abnormal activity
- Percentage of time spent in the open arms, comparison of Sham, bmTBI, bmTBI+H2 [5, 8]: did not differ significantly
- Gross motor function, latency on accelerating rotarod ([5]; 7 days after blast, 4% hydrogen gas 6 hours per day for 7 days, two-way ANOVA p>0.05): gross motor function was intact
- Total immobility time during the 6-minute trial ([5]; bmTBI+H2 group versus control, bmTBI increased, one-way ANOVA F=6.94, p=0.0036): comparable immobility time to control mice (Sham)
- Latency to the first bout of immobility ([5]; bmTBI+H2 group versus control, one-way ANOVA F=6.42, p=0.0051): latencies comparable to the control (Sham) group
- Correct choices (spatial working memory) ([5]; bmTBI+H2 group, Sham 62.6±1.8%, bmTBI 62.3±3.4%, mean±standard error, p>0.05): 60.4±3.4%
- Depression-like behaviors induced by blast exposure ([5]; conclusion from tail suspension and forced swim tests): suppresses depression-like behaviors induced by blast exposure
- Duration of interaction with an inanimate novel object, difference between groups ([5]; one-way ANOVA p>0.05): no difference
- Time required to find the buried food, difference between groups ([5]; one-way ANOVA p>0.05): no difference was found in the olfactory test
- Abnormal social behaviors induced by blast ([6]; conclusion from sociability, olfactory and novelty tests): suppressed the abnormal social behaviors induced by blast
- Difference between interaction time with living mouse and with stuffed mouse ([6]; within bmTBI+H2 group, t-test p>0.05): no significant difference
- Side effects of hydrogen [7]: no serious side effect
